# PubChem BioAssay (NCI)
#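 Where inhibition never reached the appropriate level, the endpoint shown equals the highest concentration tested. Otherwise, values were interpolated linearly from a five-concentration, 48-hour dose response in 96-well plates. At the GI50, growth is halved. At the TGI there is no net growth.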
# Columns and labels:
# Assay in all cases: DTP human tumour cell line panel, 48 h
# KM12 colon = tested on: KM12 colon
# RXF 393 renal = tested on: RXF 393 renal
# NCI/ADR-RES ovarian = tested on: NCI/ADR-RES ovarian
# A498 renal = tested on: A498 renal
# UACC-62 melanoma = tested on: UACC-62 melanoma
# 786-0 renal = tested on: 786-0 renal
# MDA-MB-435 = tested on: MDA-MB-435
# NCI-H226 lung = tested on: NCI-H226 lung
# SR leukemia = tested on: SR leukemia
# SK-MEL-28 melanoma = tested on: SK-MEL-28 melanoma
# SN12C renal = tested on: SN12C renal
# BT-549 breast = tested on: BT-549 breast
# MCF7 breast = tested on: MCF7 breast
# NCI-H522 lung = tested on: NCI-H522 lung
# OVCAR-8 ovarian = tested on: OVCAR-8 ovarian
# RPMI-8226 leukemia = tested on: RPMI-8226 leukemia
# OVCAR-5 ovarian = tested on: OVCAR-5 ovarian
# NCI-H23 lung = tested on: NCI-H23 lung
# M14 melanoma = tested on: M14 melanoma
# SW-620 colon = tested on: SW-620 colon
# UO-31 renal = tested on: UO-31 renal
# MALME-3M melanoma = tested on: MALME-3M melanoma
# PC-3 prostate = tested on: PC-3 prostate
# HL-60(TB) leukemia = tested on: HL-60(TB) leukemia
# SK-OV-3 ovarian = tested on: SK-OV-3 ovarian
# MOLT-4 leukemia = tested on: MOLT-4 leukemia
# SF-295 CNS = tested on: SF-295 CNS
# CCRF-CEM leukemia = tested on: CCRF-CEM leukemia
# MDA-MB-231 breast = tested on: MDA-MB-231 breast
# T-47D breast = tested on: T-47D breast
# IGROV1 ovarian = tested on: IGROV1 ovarian
# K-562 leukemia = tested on: K-562 leukemia
# SK-MEL-2 melanoma = tested on: SK-MEL-2 melanoma
# NCI-H460 lung = tested on: NCI-H460 lung
# A549 NSCLC = tested on: A549 NSCLC
# OVCAR-4 ovarian = tested on: OVCAR-4 ovarian
# HCC-2998 colon = tested on: HCC-2998 colon
# UACC-257 melanoma = tested on: UACC-257 melanoma
# HT29 colon = tested on: HT29 colon
# ACHN renal = tested on: ACHN renal
# SNB-75 CNS = tested on: SNB-75 CNS
# HS 578T breast = tested on: HS 578T breast
# SK-MEL-5 melanoma = tested on: SK-MEL-5 melanoma
# HCT-116 colon = tested on: HCT-116 colon
# SF-268 CNS = tested on: SF-268 CNS
# TK-10 renal = tested on: TK-10 renal
# SF-539 CNS = tested on: SF-539 CNS
# HOP-92 NSCLC = tested on: HOP-92 NSCLC
# COLO 205 colon = tested on: COLO 205 colon
# SNB-19 CNS = tested on: SNB-19 CNS
# EKVX NSCLC = tested on: EKVX NSCLC
# LOX IMVI melanoma = tested on: LOX IMVI melanoma
# CAKI-1 renal = tested on: CAKI-1 renal
# DU-145 prostate = tested on: DU-145 prostate
# U251 CNS = tested on: U251 CNS
# HCT-15 colon = tested on: HCT-15 colon
# HOP-62 NSCLC = tested on: HOP-62 NSCLC
smiles,measurement,setting,value
COc1cc(OC)c(/C=C/S(=O)(=O)Cc2ccc(OC)c(NC(=O)CCC(=O)NO)c2)c(OC)c1,GI50,KM12 colon,30.7 nM
same,TGI,KM12 colon,> 100000 nM
same,GI50,RXF 393 renal,21.4 nM
same,TGI,RXF 393 renal,> 100000 nM
same,GI50,NCI/ADR-RES ovarian,< 15.8 nM
same,TGI,NCI/ADR-RES ovarian,> 100000 nM
same,GI50,A498 renal,< 13.4 nM
same,TGI,A498 renal,79.4 nM
same,GI50,UACC-62 melanoma,19.8 nM
same,TGI,UACC-62 melanoma,> 100000 nM
same,GI50,786-0 renal,43.6 nM
same,TGI,786-0 renal,> 100000 nM
same,TGI,MDA-MB-435,31.5 nM
same,GI50,NCI-H226 lung,99.5 nM
same,TGI,NCI-H226 lung,> 100000 nM
same,GI50,SR leukemia,20.3 nM
same,TGI,SR leukemia,> 100000 nM
same,GI50,SK-MEL-28 melanoma,> 84500 nM
same,TGI,SK-MEL-28 melanoma,> 100000 nM
same,GI50,SN12C renal,61.8 nM
same,TGI,SN12C renal,> 100000 nM
same,GI50,BT-549 breast,24.4 nM
same,TGI,BT-549 breast,72.4 nM
same,GI50,MCF7 breast,25 nM
same,TGI,MCF7 breast,> 100000 nM
same,GI50,NCI-H522 lung,< 12.6 nM
same,GI50,OVCAR-8 ovarian,41.2 nM
same,TGI,OVCAR-8 ovarian,> 100000 nM
same,GI50,RPMI-8226 leukemia,45.2 nM
same,TGI,RPMI-8226 leukemia,> 100000 nM
same,GI50,OVCAR-5 ovarian,55 nM
same,TGI,OVCAR-5 ovarian,> 100000 nM
same,GI50,NCI-H23 lung,49.9 nM
same,TGI,NCI-H23 lung,> 100000 nM
same,GI50,M14 melanoma,18.8 nM
same,TGI,M14 melanoma,> 100000 nM
same,GI50,SW-620 colon,37.7 nM
same,TGI,SW-620 colon,> 100000 nM
same,GI50,UO-31 renal,107 nM
same,TGI,UO-31 renal,> 100000 nM
same,GI50,MALME-3M melanoma,> 100000 nM
same,TGI,MALME-3M melanoma,> 100000 nM
same,GI50,PC-3 prostate,31.1 nM
same,TGI,PC-3 prostate,> 100000 nM
same,GI50,HL-60(TB) leukemia,26.2 nM
same,TGI,HL-60(TB) leukemia,88 nM
same,GI50,SK-OV-3 ovarian,1170 nM
same,TGI,SK-OV-3 ovarian,> 100000 nM
same,GI50,MOLT-4 leukemia,46.7 nM
same,TGI,MOLT-4 leukemia,> 100000 nM
same,GI50,SF-295 CNS,14.4 nM
same,TGI,SF-295 CNS,> 100000 nM
same,GI50,CCRF-CEM leukemia,35.3 nM
same,TGI,CCRF-CEM leukemia,> 100000 nM
same,GI50,MDA-MB-231 breast,47.8 nM
same,TGI,MDA-MB-231 breast,> 100000 nM
same,GI50,T-47D breast,30600 nM
same,TGI,T-47D breast,> 100000 nM
same,GI50,IGROV1 ovarian,38.6 nM
same,TGI,IGROV1 ovarian,> 100000 nM
same,GI50,K-562 leukemia,< 15.4 nM
same,TGI,K-562 leukemia,> 100000 nM
same,TGI,SK-MEL-2 melanoma,> 37200 nM
same,GI50,NCI-H460 lung,34 nM
same,TGI,NCI-H460 lung,> 100000 nM
same,GI50,A549 NSCLC,39.7 nM
same,TGI,A549 NSCLC,> 100000 nM
same,TGI,OVCAR-4 ovarian,> 100000 nM
same,GI50,HCC-2998 colon,34.5 nM
same,TGI,HCC-2998 colon,> 100000 nM
same,GI50,UACC-257 melanoma,> 100000 nM
same,TGI,UACC-257 melanoma,> 100000 nM
same,GI50,HT29 colon,38.7 nM
same,TGI,HT29 colon,> 100000 nM
same,GI50,ACHN renal,33.2 nM
same,TGI,ACHN renal,> 100000 nM
same,GI50,SNB-75 CNS,18.4 nM
same,TGI,SNB-75 CNS,3680 nM
same,GI50,HS 578T breast,23 nM
same,TGI,HS 578T breast,> 100000 nM
same,GI50,SK-MEL-5 melanoma,29.9 nM
same,TGI,SK-MEL-5 melanoma,256 nM
same,GI50,HCT-116 colon,27.8 nM
same,TGI,HCT-116 colon,> 100000 nM
same,GI50,SF-268 CNS,102 nM
same,TGI,SF-268 CNS,> 100000 nM
same,GI50,TK-10 renal,> 100000 nM
same,TGI,TK-10 renal,> 100000 nM
same,GI50,SF-539 CNS,26.1 nM
same,TGI,SF-539 CNS,432 nM
same,GI50,HOP-92 NSCLC,251 nM
same,TGI,HOP-92 NSCLC,> 100000 nM
same,GI50,COLO 205 colon,32.9 nM
same,GI50,SNB-19 CNS,46.3 nM
same,TGI,SNB-19 CNS,> 100000 nM
same,GI50,EKVX NSCLC,57.3 nM
same,TGI,EKVX NSCLC,> 100000 nM
same,GI50,LOX IMVI melanoma,29.6 nM
same,TGI,LOX IMVI melanoma,> 100000 nM
same,GI50,CAKI-1 renal,< 15.9 nM
same,TGI,CAKI-1 renal,> 100000 nM
same,GI50,DU-145 prostate,45.1 nM
same,TGI,DU-145 prostate,> 100000 nM
same,GI50,U251 CNS,38.7 nM
same,TGI,U251 CNS,> 100000 nM
same,GI50,HCT-15 colon,22.5 nM
same,TGI,HCT-15 colon,> 100000 nM
same,GI50,HOP-62 NSCLC,67.5 nM
same,TGI,HOP-62 NSCLC,> 100000 nM
